In patent US4312867A, “Antibacterial compounds, processes for their preparation and compositions containing them” (Beecham Group Limited, priority 1979, dated 1982):
≈ marks a conversion by molar mass, not a printed value. Where two headings read alike, the source gives them in different places.

Experiments:
Bord bronchiseptica B09 = assay: MIC veterinary bacteria (Table 2), serial dilution in agar; format: cell-based; conditions: diagnostic sensitivity test agar
Strep pyogenes A 64/848 = assay: MIC human bacteria (Table 1), serial dilution in nutrient agar; format: cell-based; conditions: nutrient agar with 5% chocolated horse blood
Staph aureus Oxford [1] = assay: as above; format: cell-based; conditions: Staphylococcus aureus, nutrient agar with 5% chocolated horse blood
M. suipneumoniae NB12 = assay: anti-mycoplasmal MIC, Friis broth solidified with agarose (Table 4); format: cell-based; conditions: Mesomycoplasma hyopneumoniae
E. coli NCTC 10418 [2] = assay: MIC human bacteria (Table 1), serial dilution in nutrient agar; format: cell-based; conditions: Escherichia coli, NCTC10418; E. coli NCTC 10418; nutrient agar with 5% chocolated horse blood; read-out: MIC
Sarcina lutea 8340 = assay: as above; format: cell-based; conditions: nutrient agar with 5% chocolated horse blood
[3] = test system: Pasteurella multocida 1633; assay: as above; format: cell-based
Bacillus subtilis 6633 = assay: as above; format: cell-based; conditions: nutrient agar with 5% chocolated horse blood
Staph aureus W2827 = assay: as above; format: cell-based; conditions: Staphylococcus aureus, nutrient agar with 5% chocolated horse blood
[4] = test system: Strep suis (group D) SPS11; assay: MIC veterinary bacteria (Table 2), serial dilution in agar; format: cell-based; conditions: diagnostic sensitivity test agar
[5] = test system: Staph aureus 152 (pen. sens); assay: as above; format: cell-based; conditions: Staphylococcus aureus, diagnostic sensitivity test agar
Staph aureus Russell = assay: MIC human bacteria (Table 1), serial dilution in nutrient agar; format: cell-based; conditions: Staphylococcus aureus, nutrient agar with 5% chocolated horse blood
[6] = Serum binding by ultrafiltration of porcine serum; format: in vitro ADME; conditions: pig, 8 mcg/ml, microbiological assay, read-out: % bound to pig serum (converted)
Experimental: Serum binding was assessed by ultrafiltration of porcine serum containing compounds at 8 mcg/ml, and through an Amicon CF50A ultrafiltration cone. Separation of ultrafiltrate was achieved by centrifugation. Unbound concentrations of compound were measured in the ultrafiltrate by microbiological assay (B. subtilis ATCC 6633) against standards prepared in saline.

P. mirabilis 889 = assay: MIC human bacteria (Table 1), serial dilution in nutrient agar; format: cell-based; conditions: Proteus mirabilis; P. mirabilis 889; nutrient agar with 5% chocolated horse blood; read-out: MIC
[7] = test system: Erysipelothrix rhusiopathiae NCTC 8163; assay: MIC veterinary bacteria (Table 2), serial dilution in agar; format: cell-based; conditions: NCTC8163
Strep dysgalaciae SPD1 = assay: as above; format: cell-based; conditions: diagnostic sensitivity test agar
Strep pyogenes C 2761 = assay: MIC human bacteria (Table 1), serial dilution in nutrient agar; format: cell-based; conditions: nutrient agar with 5% chocolated horse blood
Past multocida PA1 = assay: MIC veterinary bacteria (Table 2), serial dilution in agar; format: cell-based; conditions: diagnostic sensitivity test agar
[8] = test system: Corynebacterium pyogenes CY1; assay: as above; format: cell-based; conditions: Trueperella pyogenes, diagnostic sensitivity test agar
S. typhimurium S18 = assay: as above; format: cell-based; conditions: Salmonella enterica, diagnostic sensitivity test agar
E. coli E1 = assay: as above; format: cell-based; conditions: Escherichia coli, diagnostic sensitivity test agar
E. coli ESS = assay: MIC human bacteria (Table 1), serial dilution in nutrient agar; format: cell-based; conditions: Escherichia coli; E. coli ESS; nutrient agar with 5% chocolated horse blood; read-out: MIC
[9] = test system: M. suipneumoniae ATCC 25095; assay: anti-mycoplasmal MIC, Friis broth solidified with agarose (Table 4); format: cell-based; conditions: Mesomycoplasma hyopneumoniae, ATCC25095, 144 h, 6 days at 37° C.
Staph aureus Oxford [10] = assay: MIC veterinary bacteria (Table 2), serial dilution in agar; format: cell-based; conditions: Staphylococcus aureus; Staph aureus Oxford; diagnostic sensitivity test agar; read-out: MIC
[11] = test system: Neisseria catarrhalis 1502; assay: MIC human bacteria (Table 1), serial dilution in nutrient agar; format: cell-based; conditions: nutrient agar with 5% chocolated horse blood
S. dublin S7 = assay: MIC veterinary bacteria (Table 2), serial dilution in agar; format: cell-based; conditions: Salmonella enterica, diagnostic sensitivity test agar
[12] = test system: Staph aureus B4 (pen. resis); assay: as above; format: cell-based; conditions: Staphylococcus aureus; Staph aureus B4 (pen. resis); diagnostic sensitivity test agar; read-out: MIC
Past multocida PA2 = assay: as above; format: cell-based; conditions: diagnostic sensitivity test agar
E. coli NCTC 10418 [13] = assay: as above; format: cell-based; conditions: Escherichia coli, NCTC10418; E. coli NCTC 10418; diagnostic sensitivity test agar; read-out: MIC
Ps. aeruginosa 10662 = assay: MIC human bacteria (Table 1), serial dilution in nutrient agar; format: cell-based; conditions: Pseudomonas aeruginosa, nutrient agar with 5% chocolated horse blood
Bord bronchiseptica B08 = assay: MIC veterinary bacteria (Table 2), serial dilution in agar; format: cell-based; conditions: diagnostic sensitivity test agar
Strep uberis SPU1 = assay: as above; format: cell-based; conditions: diagnostic sensitivity test agar
Strep pneumoniae CN33 = assay: MIC human bacteria (Table 1), serial dilution in nutrient agar; format: cell-based; conditions: nutrient agar with 5% chocolated horse blood
M. suipneumoniae UCD1 = assay: anti-mycoplasmal MIC, Friis broth solidified with agarose (Table 4); format: cell-based; conditions: Mesomycoplasma hyopneumoniae, 144 h, 6 days at 37° C.
Strep agalactiae SPA1 = assay: MIC veterinary bacteria (Table 2), serial dilution in agar; format: cell-based; conditions: diagnostic sensitivity test agar
K. aerogenes A = assay: MIC human bacteria (Table 1), serial dilution in nutrient agar; format: cell-based; conditions: Klebsiella aerogenes, nutrient agar with 5% chocolated horse blood
[14] = test system: Haemophilus influenzae Q1; assay: as above; format: cell-based
[15] = test system: Haemophilus influenzae Wy21; assay: as above; format: cell-based
[16] = test system: Corynebacterium xerosis 9755; assay: as above; format: cell-based; conditions: nutrient agar with 5% chocolated horse blood
Strep faecalis I = assay: as above; format: cell-based; conditions: nutrient agar with 5% chocolated horse blood
Strep pyogenes B 2788 = assay: as above; format: cell-based; conditions: nutrient agar with 5% chocolated horse blood
M. suipneumoniae LABER = assay: anti-mycoplasmal MIC, Friis broth solidified with agarose (Table 4); format: cell-based; conditions: Mesomycoplasma hyopneumoniae, 144 h, 6 days at 37° C.

Compound `C/C(=C\C(=O)OCCCS(=O)(=O)N(C)C)CC1OCC(CC2OC2C(C)C(C)O)C(O)C1O` (stereo not drawn) [Example 4, 3-N,N-Dimethylsulphamoylpropyl monate A] has an MIC (Bord bronchiseptica B09) of 20 µg/mL (≈ 40.5 µM), an MIC (Strep pyogenes A 64/848) of 2.5 µg/mL (≈ 5.06 µM) and an MIC (Staph aureus Oxford [1]) of 10 µg/mL (≈ 20.3 µM). The MIC (M. suipneumoniae NB12; NB12, 144 h) was 500 µg/mL (≈ 1010 µM), the MIC (E. coli NCTC 10418 [2]) was > 100 µg/mL and the MIC (Sarcina lutea 8340) was “No Growth”. For the same compound, the MIC ([3]; Pasteurella multocida, 1633) was 0.5 µg/mL (≈ 1.01 µM), the MIC (Bacillus subtilis 6633) was 2.5 µg/mL (≈ 5.06 µM) and the MIC (Staph aureus W2827) was 10 µg/mL (≈ 20.3 µM). For the same compound, the MIC [4] was 40 µg/mL (≈ 81 µM), the MIC [5] was 2.5 µg/mL (≈ 5.06 µM) and the MIC (Staph aureus Russell) was 10 µg/mL (≈ 20.3 µM). The fraction unbound [6] was 0.053, the MIC (P. mirabilis 889) was > 100 µg/mL and the MIC ([7]; Erysipelothrix rhusiopathiae NCTC 8163, diagnostic sensitivity test agar, read-out: MIC) was > 80 µg/mL. For the same compound, the MIC (Strep dysgalaciae SPD1) was 2.5 µg/mL (≈ 5.06 µM), the MIC (Strep pyogenes C 2761) was 5 µg/mL (≈ 10.1 µM) and the MIC (Past multocida PA1) was 0.625 µg/mL (≈ 1.27 µM). The MIC [8] was > 80 µg/mL, the MIC (S. typhimurium S18) was > 80 µg/mL and the MIC (E. coli E1) was > 80 µg/mL. The MIC (E. coli ESS) was 2.5 µg/mL (≈ 5.06 µM), the MIC [9] was 500 µg/mL (≈ 1010 µM) and the MIC (Staph aureus Oxford [10]) was 2.5 µg/mL (≈ 5.06 µM). For the same compound, the MIC [11] was 1 µg/mL (≈ 2.03 µM), the MIC (S. dublin S7) was > 80 µg/mL and the MIC [12] was 5 µg/mL (≈ 10.1 µM). For the same compound, the MIC (Past multocida PA2) was 0.312 µg/mL (≈ 0.632 µM), the MIC (E. coli NCTC 10418 [13]) was > 80 µg/mL and the MIC (Ps. aeruginosa 10662) was > 100 µg/mL. It also gave an MIC (Bord bronchiseptica B08) of 80 µg/mL (≈ 162 µM), an MIC (Strep uberis SPU1) of 2.5 µg/mL (≈ 5.06 µM) and an MIC (Strep pneumoniae CN33) of 1 µg/mL (≈ 2.03 µM). For the same compound, the MIC (M. suipneumoniae UCD1) was 1000 µg/mL (≈ 2030 µM), the MIC (Strep agalactiae SPA1) was 2.5 µg/mL (≈ 5.06 µM) and the MIC (K. aerogenes A) was > 100 µg/mL. The MIC ([14]; Haemophilus influenzae, Q1) was 0.1 µg/mL (≈ 0.203 µM), the MIC ([15]; Haemophilus influenzae, WY21) was 0.1 µg/mL (≈ 0.203 µM) and the MIC [16] was “No Growth”. The MIC (Strep faecalis I) was > 100 µg/mL, the MIC (Strep pyogenes B 2788) was 2.5 µg/mL (≈ 5.06 µM) and the MIC (M. suipneumoniae LABER) was 500 µg/mL (≈ 1010 µM).

`C/C(=C\C(=O)OC(C)CCCCCS(N)(=O)=O)CC1OCC(CC2OC2C(C)C(C)O)C(O)C1O` (stereo not drawn) [Example 5, 7-Sulphamoylhept-2-yl monate A] showed an MIC (Bord bronchiseptica B09) of 10 µg/mL (≈ 19.2 µM), an MIC (Strep pyogenes A 64/848) of 2.5 µg/mL (≈ 4.79 µM) and an MIC (Staph aureus Oxford [1]) of 10 µg/mL (≈ 19.2 µM). For the same compound, the MIC (M. suipneumoniae NB12; 144 h, M. suipneumoniae NB12, 6 days at 37° C., read-out: MIC) was 500 µg/mL (≈ 958 µM), the MIC (E. coli NCTC 10418 [2]) was > 100 µg/mL and the MIC (Sarcina lutea 8340) was “No Growth”. It also gave an MIC ([3]; Pasteurella multocida 1633, nutrient agar with 5% chocolated horse blood, read-out: MIC) of 2.5 µg/mL (≈ 4.79 µM), an MIC (Bacillus subtilis 6633) of 2.5 µg/mL (≈ 4.79 µM) and an MIC (Staph aureus W2827) of 25 µg/mL (≈ 47.9 µM). The MIC [4] was 5 µg/mL (≈ 9.58 µM), the MIC [5] was 1.25 µg/mL (≈ 2.4 µM) and the MIC (Staph aureus Russell) was 10 µg/mL (≈ 19.2 µM). For the same compound, the fraction unbound [6] was 0.354, the MIC (P. mirabilis 889) was > 100 µg/mL and the MIC ([7]; Erysipelothrix rhusiopathiae) was 40 µg/mL (≈ 76.7 µM). For the same compound, the MIC (Strep dysgalaciae SPD1) was 0.625 µg/mL (≈ 1.2 µM), the MIC (Strep pyogenes C 2761) was 2.5 µg/mL (≈ 4.79 µM) and the MIC (Past multocida PA1) was 0.625 µg/mL (≈ 1.2 µM). The MIC [8] was 80 µg/mL (≈ 153 µM), the MIC (S. typhimurium S18) was > 80 µg/mL and the MIC (E. coli E1) was > 80 µg/mL. It also gave an MIC (E. coli ESS) of 2.5 µg/mL (≈ 4.79 µM), an MIC [9] of 250 µg/mL (≈ 479 µM) and an MIC (Staph aureus Oxford [10]) of 1.25 µg/mL (≈ 2.4 µM). The MIC [11] was 1 µg/mL (≈ 1.92 µM), the MIC (S. dublin S7) was > 80 µg/mL and the MIC [12] was 5 µg/mL (≈ 9.58 µM). For the same compound, the MIC (Past multocida PA2) was 0.312 µg/mL (≈ 0.598 µM), the MIC (E. coli NCTC 10418 [13]) was > 80 µg/mL and the MIC (Ps. aeruginosa 10662) was > 100 µg/mL. The MIC (Bord bronchiseptica B08) was 40 µg/mL (≈ 76.7 µM), the MIC (Strep uberis SPU1) was 0.625 µg/mL (≈ 1.2 µM) and the MIC (Strep pneumoniae CN33) was 1 µg/mL (≈ 1.92 µM). For the same compound, the MIC (M. suipneumoniae UCD1) was 1000 µg/mL (≈ 1920 µM), the MIC (Strep agalactiae SPA1) was 1.25 µg/mL (≈ 2.4 µM) and the MIC (K. aerogenes A) was > 100 µg/mL. The MIC ([14]; Haemophilus influenzae Q1, nutrient agar with 5% chocolated horse blood, read-out: MIC) was 0.2 µg/mL (≈ 0.383 µM), the MIC ([15]; Haemophilus influenzae Wy21, nutrient agar with 5% chocolated horse blood, read-out: MIC) was 0.2 µg/mL (≈ 0.383 µM) and the MIC [16] was “No Growth”. The MIC (Strep faecalis I) was > 100 µg/mL, the MIC (Strep pyogenes B 2788) was 2.5 µg/mL (≈ 4.79 µM) and the MIC (M. suipneumoniae LABER) was 250 µg/mL (≈ 479 µM).
